Data taken from patent EP0186807A2, “Anthracycline derivatives, their microbiological preparation and their use as medicines” (HOECHST AKTIENGESELLSCHAFT, priority 1984, dated 1986).
In brackets after ≈: the same amount, converted by molar mass.

What was measured:
[1] = system: Candida albicans; test: Agar well diffusion (inhibition zone); format: cell-based; conditions: 1 mg/ml solution in a 6 mm well in agar containing Candida albicans; read-out: Hofdurchmesser
Method: (§1) Bestimmt wurde die bakteriostatische Wirkung von Kesarirhodin. Die Resultate, die als Durchmesser (in Millimetern) der Hemmhöfe, erzeugt durch die Substanz in Form einer 1 mg/ml-Lösung in einem Loch von 6 mm Durchmesser in Agar, das den Testorganismus enthält, angegeben sind, werden in der nachfolgenden Tabelle, Tabelle II, dargestellt. Kesarirhodine sind gegen gram-positive Bakterien und Pilze wirksam und können deshalb als Antibiotika zur Behandlung von Pilz- und Staphylokokken-Infektionen, Diphterie, Pneumonie usw. eingesetzt werden.

[2] = Solubility in solvents (qualitative); format: physicochemical
[3] = system: Mäuse-L 1210-Leukämiezellen; test: Proliferation test (14C-thymidine incorporation); format: cell-based; conditions: Mus musculus, read-out: IC50 Proliferations-test
Excerpt: (§2) Die Ermittlung der zytostatischen Aktivität der Kesarirhodine erfolgte in der nachfolgend beschriebenen Weise an Mäuse-L 1210-Leukämiezellen.
Bei dieser in vitro-Methode ist es nach der Inkubation der Zellen mit verschiedenen Konzentrationen der Prüfsubstanz möglich, die eingebaute Menge eines radioaktiv markierten DNS-Vorläufers (z.B. 14C-Thymidin) in einer wachsenden Zelle zu bestimmen. Als Kontrolle dienen dem gleichen Verfahren unterzogenen unbehandelte L 1210-Zellen. Die Methode wird nachstehend kurz zusammengefaßt: • L 1210-Zellen in exponentieller Wachstumsphase (5 x 10^3/ml in RPMI 1640) werden 72 Stunden lang (37°C, 5 % C02, 95 % relative Feuchtigkeit) in einer 96-Loch-Mikrotiterplatte mit unterschiedlichen Konzentrationen der Prüfsubstanz inkubiert. Als Kontrollen werden Zellen verwendet, die lediglich mit dem frischen Medium in Berührung gebracht werden. Es werden vier Löcher für jede Medikamentenkonzentration und Kontrolle angelegt. Nach 65 Stunden werden 50 µl 14C Thymidin (1,5 oCi/ml) zugefügt, um die Zell-DNS zu markieren. Nach 7 Stunden Inkubation werden die Zellen geerntet, die DNS mit 5 % Trichloressigsäure abgetrennt und mit Wasser und Methanol gewaschen. Nach dem Trocknen bei 50°C wird die Szintillationszahl mit 5 ml Szintillationsflüssigkeit bestimmt.
Die Ergebnisse werden als Quotient des Szintillationsindex nach der Inkubation mit den Testsubstanzen mit dem der Kontrollsubstanz ausgedrückt. Mit den ermittelten Werten wird eine Dosiswirkungskurve gezeichnet und der Wert IC50 d.h. die Konzentration der Prüfsubstanz, die den Einbau von markiertem Thymidin im Vergleich zur Kontrolle um 50 % hemmt, graphisch ermittelt. Die IC50-Werte sind denen von Adriamycin in der folgenden Tabelle III gegenübergestellt.

[4] = system: Mäuse-L 1210-Leukämiezellen; test: Stem cell test (colony formation in soft agar, continuous incubation); format: cell-based; conditions: Mus musculus, L1210, 168 h, read-out: IC50 Stammzellentest 7 Tage Inkubation
Excerpt: as §2
Diese Methode dient zum Nachweis der Wirkung der Prüfsubstanz auf das Wachstum von Leukämiezellen über mehrere Generationen (da die Dauer eines Zellzyklus 10 - 12 Stunden beträgt, werden innerhalb des Untersuchungszeitraumes von 7 Tagen rund 14 aufeinanderfolgende Generationen erfaßt).
In diesem Test beruht die Wirkung von zytotoxischen Substanzen auf der Verminderung der Zahl beobachtbarer Kolonien im Vergleich zur unbehandelten Kontrolle. Es wird folgende Methodik verwendet: • Pro Platte werden 500 L 1210-Leukämiezellen verwendet. Die Experimente werden bei kontinuierlicher Inkubation mit verschiedenen Konzentrationen der Prüfsubstanz durchgeführt, wobei die Substanz vor dem Aufbringen der Zellen auf die Platte der oberen Agarschicht beigemischt wird. Die Platten werden 7 Tage lang in einem Brutschrank gelagert (37°C, 5 % C023 95 % relative Luftfeuchtigkeit). Anschließend wird die Anzahl der entstandenen Kolonien mit einem Durchmesser von mehr als 60 um mit einem umgekehrten Mikroskop gezählt. Die Resultate werden als Prozentsatz der auf den behandelten Platten gebildeten Kolonien im Vergleich zu denen der unbehandelten Kontrolle ausgedrückt. Mit den ermittelten Werten wird eine Dosiswirkungskurve gezeichnet, aus welcher der IC50-Wert graphisch ermittelt wird. Die IC50-Werte der Kesarirhodine werden in Tabelle III mit denen von Adriamycin verglichen.

[5] = system: Bacillus subtilis; test: Bacteriostatic activity, agar well diffusion (inhibition zone); format: cell-based; conditions: 1 mg/ml solution in a 6 mm well in agar containing Bacillus subtilis; read-out: Hofdurchmesser
Method: as §1

[6] = system: Staphylococcus aureus 209P; test: as above; format: cell-based; conditions: 1 mg/ml solution in a 6 mm well in agar containing Staphylococcus aureus 209P; read-out: Hofdurchmesser
Method: as §1

[7] = in Hexan (n-Hexan) und Petroläther (Petroleumäther)
[8] = in Methanol, Aceton, Äthylacetat, Chloroform und schwachen Säuren
[9] = L1210, L 1210 cells, 72 h incubation, 14C-thymidine incorporation, read graphically from dose-response curve
[10] = 500 L 1210 cells per plate, soft agar, continuous incubation 7 days, colonies > 60 µm

CC[C@]1(O)Cc2c(O)c3c(c(O)c2[C@@H](O[C@H]2C[C@H](N(C)C)[C@H](O[C@H]4CC[C@H](O[C@H]5CC[C@H](O)[C@H](C)O5)[C@H](C)O4)[C@H](C)O2)C1)C(=O)c1c(O)cccc1C3=O [Kesarirhodin B]
zone of inhibition at 1000 µg/mL [1]: 20 mm | Löslichkeit [2, 7]: wenig löslich | Löslichkeit [2, 8]: löslich | IC50 [3, 9]: 0.1 µg/mL (≈ 0.132 µM) | IC50 [4, 10]: 0.028 µg/mL (≈ 0.037 µM) | zone of inhibition at 1000 µg/mL [5]: 17 mm | zone of inhibition at 1000 µg/mL [6]: 17 mm

COc1cccc2c1C(=O)c1c(O)c3c(c(O)c1C2=O)C[C@@](O)(C(=O)CO)C[C@@H]3O[C@H]1C[C@H](N)[C@H](O)[C@H](C)O1 [Adriamycin, reference compound]
IC50 ([3]; L1210, 72 h): 0.006 µg/mL (≈ 0.011 µM) | IC50 [4]: 0.022 µg/mL (≈ 0.0405 µM)

CC[C@]1(O)Cc2c(O)c3c(c(O)c2[C@@H](O[C@H]2C[C@H](N(C)C)[C@H](O[C@H]4C[C@H](O)[C@H](O[C@H]5CC[C@H](O)[C@H](C)O5)[C@H](C)O4)[C@H](C)O2)C1)C(=O)c1c(O)cccc1C3=O [Kesarirhodin A]
zone of inhibition at 1000 µg/mL [1]: 20 mm | Löslichkeit [2, 7]: wenig löslich | Löslichkeit [2, 8]: löslich | IC50 [3, 9]: 0.031 µg/mL (≈ 0.0402 µM) | IC50 [4, 10]: 0.031 µg/mL (≈ 0.0402 µM) | zone of inhibition at 1000 µg/mL [5]: 17 mm | zone of inhibition at 1000 µg/mL [6]: 15 mm
